Data published in patent publication US8445430B2, “Cyclic carboxamide compounds and analogues thereof as of hepatitis C virus” (Achillion Pharmaceuticals, Inc., priority 2008, dated 2013).

system: HCV replicon in Huh-7 cells; assay: HCV replicon assay (NPT ELISA) for inhibition of HCV replication; assay type: cell-based; settings: Hepatitis C virus, Huh-7, 72 h, HCV replicon-containing Huh-7 cells, three days incubation; read-out: EC50
Description: Compounds claimed herein are tested for the ability to inhibit viral replication of the Hepatitis C replicon in cultured cells in which the HCV replicon construct has been incorporated. The HCV replicon system was described by Bartenschlager, et. al (Science, 285, pp. 110-113 (1999)). The replicon system is predictive of in vivo anti-HCV activity; compounds that are active in humans uniformly evidence activity in the replicon assay.
In this assay HCV replicon containing cells are treated with different concentrations of the test compound to ascertain the ability of the test compound to suppress replication of the HCV replicon. As a positive control, HCV replicon-containing cells are treated with different concentrations of interferon alpha, a known inhibitor of HCV replication. The replicon assay system includes Neomycin Phosphotransferase (NPT) as a component of the replicon itself in order to detect the transcription of replicon gene products in the host cell. Cells in which the HCV replicon is actively replicating have high levels of NPT; the level of NPT is proportional to HCV replication. […] The NPT level of each sample is measured using a captured ELISA.
A protocol for testing compounds for the ability to inhibit viral replication of the Hepatitis C replicon cultured cells in which the replicon construct has been incorporated, follows.
The HCV replicon contains, 5′-3′, the HCV-IRES, the neomycin phosphotransferase (neo) gene, the IRES of encephalomyocarditis virus, which directs translation of HCV sequences NS3 to NS5B, and the 3′-NTR. The sequence of the HCV replicon has been deposited in GenBank (Accession no. AJ242652).
The replicon is transfected into Huh-7 cells using standard methods such as electroporation.
The equipment and materials include, but are not limited to, Huh-7 HCV replicon-containing cells, maintenance media (DMEM (Dulbecco's modified Eagle media) supplemented with 10% FBS, L-glutamine, non-essential amino acids, penicillin (100 units/ml), streptomycin (100 micrograms/ml), and 500 micrograms/ml of Geneticin (G418), screening media (DMEM supplemented with 10% FBS, L-glutamine, non-essential amino acids, penicillin (100 units/ml) and streptomycin (100 micrograms/ml)), 96 well tissue culture plates (flat bottom), 96 well plates (U bottom for drug dilution), Interferon alpha for positive control, fixation reagent (such as methanol:acetone), primary antibody (rabbit anti-NPTII), secondary antibody: Eu-N11, and enhancement solution.
HCV replicon-containing cells support high levels of viral RNA replicon replication when their density is suitable. Over-confluency causes decreased viral RNA replication. Therefore, cells must be kept growing in log phase in the presence of 500 micrograms/ml of G418. Generally, cells should be passed twice a week at 1: 4-6 dilution. Cell maintenance is conducted as follows:
HCV replicon-containing cells are examined under a microscope to ensure that cells growing well. Cells are rinsed once with PBS and 2 ml trypsin is added. The cell/trypsin mixture is incubated at 37° C. in a CO2 incubator for 3-5 minutes. After incubation 10 ml of complete media is added to stop the trypsinization reaction. Cells are blown gently, put into a 15 ml tube, and spun at 1200 rpm for 4 minutes. The trypsin/medium solution is removed. Medium (5 ml) is added and the cells are mixed carefully. The cells are counted.
The cells are then seeded onto 96-well plates at a density of 6000-7500 cells/100 microliters/well (6-7.5×10^5 cells/10 ml/plate). The plates are then incubated at 37° C. in a 5% CO2 incubator.
Cells are examined under a microscope approximated 24 hours after seeding and prior to adding drugs. If counting and dilution were performed correctly, cells are 60-70% confluent and nearly all cells should attach and spread evenly in the well.
HCV replicon-containing cells are rinsed with once PBS once; 2 mls of trypsin are then added. Cells are incubated at 37° C. in a 5% CO2 incubator for 3-5 minutes. […]

Row | SMILES | EC50
1 | COc1ccc2c(O[C@@H]3C[C@H]4C(=O)N[C@]5(C(=O)NS(=O)(=O)C6CC6)C[C@H]5/C=C\CCCC(=O)N[C@@H](C(C)(C)C)C(=O)N4C3)cc(-c3nc(C(C)C)cs3)nc2c1C [Compound 19, (2R,6S,14aR,16aS,Z)-6-tert-butyl-N-(cyclopropylsulfonyl)-2-(2-(4-isopropyithiazol-2-yl)-7-methoxy-8-methylquinolin-4-yloxy)-5,8,16-trioxo-1,2,3,5,6,7,8,9,10,11,13a,14,14a,15,16,16a-hexadecahydrocyclopropa[n]pyrrolo[2,1-c] [1,4,7]triazacyclopentadecine-14a-carboxamide] | 1 to 10 µM
2 | COc1ccc2c(O[C@@H]3C[C@H]4C(=O)NC5(C(=O)NS(=O)(=O)C6CC6)CC5/C=C\CCCC(=O)N[C@@H](C(C)(C)C)C(=O)N4C3)cc(-c3ccccc3)nc2c1 (stereo partly drawn) [Compound 4, (2R,6S,16aS,Z)-6-tert-butyl-N-(cyclopropylsulfonyl)-2-(7-methoxy-2-phenylquinolin-4-yloxy)-5,8,16-trioxo-1,2,3,5,6,7,8,9,10,11,13a,14,14a,15,16,16a-hexadecahydrocyclopropa[n]pyrrolo[2,1-c] [1,4,7]triazacyclopentadecine-14a-carboxamide] | 1 to 10 µM
3 | COc1ccc2c(O[C@@H]3C[C@H]4C(=O)N[C@]5(C(=O)NS(=O)(=O)C6CC6)C[C@H]5/C=C\CCCC(=O)N[C@@H](CC(=O)N5CCCC(F)(F)C5)C(=O)N4C3)cc(-c3nc(C(C)C)cs3)nc2c1C [Compound 17, (2R,6S,14aR,16aS,Z)-N-(cyclopropylsulfonyl)-6-(2-(3,3-difluoropiperidin-1-yl)-2-oxoethyl)-2-(2-(4-isopropylthiazol-2-yl)-7-methoxy-8-methylquinolin-4-yloxy)-5,8,16-trioxo-1,2,3,5,6,7,8,9,10,11,13a,14,14a, 15,16,16a-hexadecahydrocyclopropa[n] pyrrolo[2,1-c][1,4,7]triazacyclopenta-decine-14a-carboxamide] | < 1 µM
4 | COC(=O)C[C@@H]1NC(=O)CCC/C=C\[C@@H]2C[C@@]2(C(=O)NS(=O)(=O)C2CC2)NC(=O)[C@@H]2C[C@@H](Oc3cc(-c4ccccc4)nc4cc(OC)ccc34)CN2C1=O [Compound 12, methyl 2-((2R,6S,14aR,16aS,Z)-14a-(cyclopropylsulfonylcarbamoyl)-2-(7-methoxy-2-phenylquinolin-4-yloxy)-5,8,16-trioxo-1,2,3,5,6,7,8,9,10,11,13a,14,14a,15,16,16a-hexadecahydrocyclopropa[n]pyrrolo[2,1-c] [1,4,7]triazacyclopentadecin-6-yl)acetate] | 1 to 10 µM
5 | C=CCCCC(=O)N[C@@H](C(=O)N1C[C@H](Oc2cc(-c3ccccc3)nc3cc(OC)ccc23)C[C@H]1C(=O)N[C@@]1(C(=O)NS(=O)(=O)C2CC2)C[C@@H]1C=C)C(C)(C)C [Compound 8, (2S,4R)-N-((1S,2R)-1-(cyclopropylsulfonylcarbamoyl)-2-vinylcyclopropyl)-1-((R)-2-hex-5-enamido-3,3-dimethylbutanoyl)-4-(7-methoxy-2-phenylquinolin-4-yloxy)pyrrolidine-2-carboxamide] | 1 to 10 µM
6 | COc1ccc2c(O[C@@H]3C[C@H]4C(=O)N[C@]5(C(=O)NS(=O)(=O)C6CC6)C[C@H]5/C=C\CCCC(=O)N[C@@H](CC(=O)N5CCCCC5)C(=O)N4C3)cc(-c3ccccc3)nc2c1 [Compound 15, (2R,6S,14aR,16aS,Z)-N-(cyclopropylsulfonyl)-2-(7-methoxy-2-phenylquinolin-4-yloxy)-5,8,16-trioxo-6-(2-oxo-2-(piperidin-1-yl)ethyl)-1,2,3,5,6,7,8,9,10,11,13a,14,14a,15,16,16a hexadecahydrocyclopropa[n]pyrrolo [2,1-c][1,4,7]triazacyclopentadecine-14a-carboxamide] | < 1 µM
7 | COc1ccc2c(O[C@@H]3C[C@H]4C(=O)N[C@]5(C(=O)NS(=O)(=O)C6CC6)C[C@H]5/C=C\CCCC(=O)N[C@H](C(C)(C)C)C(=O)N4C3)cc(-c3ccccc3)nc2c1 [Compound 5, (2R,6R,13aS,14aR,16aS,Z)-6-tert-butyl-N-(cyclopropylsulfonyl)-2-(7-methoxy-2-phenylquinolin-4-yloxy)-5,8,16-trioxo-1,2,3,5,6,7,8,9,10,11,13a,14,14a,15,16,16a-hexadecahydrocyclopropa[n]pyrrolo[2,1-c] [1,4,7]triazacyclopentadecine-14a-carboxamide] | > 10 µM
8 | CCOC(=O)[C@@]12C[C@@H]1/C=C\CCCC(=O)N[C@@H](C(C)(C)C)C(=O)N1C[C@H](Oc3cc(-c4ccccc4)nc4cc(OC)ccc34)C[C@H]1C(=O)N2 [Compound 1, (2R,6S,13aR,14aR,16aS,Z)-ethyl 6-tert-butyl-2-(7-methoxy-2-phenylquinolin-4-yloxy)-5,8,16-trioxo-1,2,3,5,6,7,8,9,10,11,13a,14,14a,15,16,16a-hexadecahydrocyclopropa[n]pyrrolo[2,1-c] [1,4,7]triazacyclopentadecine-14a-carboxylate] | > 10 µM
9 | COc1ccc2c(O[C@@H]3C[C@H]4C(=O)N[C@]5(C(=O)NS(=O)(=O)C6CC6)C[C@H]5/C=C\CCCC(=O)N(C)[C@@H](C(C)(C)C)C(=O)N4C3)cc(-c3ccccc3)nc2c1 [Compound 10, (2R,6S,13aS,14aR,16aS,Z)-6-tert-butyl-N-(cyclopropylsulfonyl)-2-(7-methoxy-2-phenylquinolin-4-yloxy)-7-methyl-5,8,16-trioxo-1,2,3,5,6,7,8,9,10,11,13a,14,14a,15,16,16a-hexadecahydrocyclopropa[n]pyrrolo[2,1-c] [1,4,7]triazacyclopentadecine-14a-carboxamide] | > 10 µM
10 | CCOC(=O)C12CC1/C=C\CCCC(=O)N(CCCCCC(=O)O)[C@@H](C(C)(C)C)C(=O)N1C[C@H](Oc3cc(-c4ccccc4)nc4cc(OC)ccc34)C[C@H]1C(=O)N2 (stereo partly drawn) [Compound 3, 6-((2R,6S,16aS,Z)-6-tert-butyl-14a-(ethoxycarbonyl)-2-(7-methoxy-2-phenylquinolin-4-yloxy)-5,8,16-trioxo-2,3,5,6,8,9,10,11,13a,14,14a,15,16,16a-tetradecahydrocyclopropa[n]pyrrolo[2,1-c] [1,4,7]triazacyclopentadecin-7(1H)-yl)hexanoic acid] | > 10 µM
11 | COC(=O)CC1NC(=O)CCC/C=C\[C@@H]2C[C@@]2(C(=O)NS(=O)(=O)C2CC2)NC(=O)[C@@H]2C[C@@H](Oc3cc(-c4ccccc4)nc4cc(OC)ccc34)CN2C1=O (stereo partly drawn) [Compound 13, methyl 2-((2R,14aR,16aS,Z)-14a-(cyclopropylsulfonylcarbamoyl)-2-(7-methoxy-2-phenylquinolin-4-yloxy)-5,8,16-trioxo-1,2,3,5,6,7,8,9,10,11,13a,14,14a,15,16,16a-hexadecahydrocyclopropa[n]pyrrolo[2,1-c] [1,4,7]triazacyclopentadecin-6-yl)acetate] | 1 to 10 µM
12 | COc1ccc2c(O[C@@H]3C[C@H]4C(=O)N[C@]5(C(=O)NS(=O)(=O)C6CC6)C[C@H]5/C=C\CCCC(=O)N(C)CC(=O)N4C3)cc(-c3nc(C(C)C)cs3)nc2c1C [Compound 18, (2R,14aR,16aS,Z)-N-(cyclopropylsulfonyl)-2-(2-(4-isopropyithiazol-2-yl)-7-methoxy-8-methylquinolin-4-yloxy)-7-methyl-5,8,16-trioxo-1,2,3,5,6,7,8,9,10,11,13a,14,14a,15,16,16a-hexadecahydrocyclopropa[n]pyrrolo[2,1-c] [1,4,7]triazacyclopentadecine-14a-carboxamide] | < 1 µM
